Consider five molecules from PubChem BioAssay AID1963442 (Molecular Pharmacology Branch, DTP, NCI, 2024).

Each structure is given as a SMILES string. Where “and” joins values, the source holds several entries; their conditions need not be identical. Equal values may be shown once.

This test concerns MPNST complex spheroid with HUVEC/MSC, growth, % test/control. Description: Anticancer human tumor MPNST cell line growth inhibition [Asc].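 For all read-outs here: compounds left on spheroids for seven days before reading.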 The following applies: for viability, T/C: stronger effect = lower value. In a few lines:
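Stromal components (HUVEC and hMSC) are co-assembled with the cancer cells into multicellular spheroids. Drugs are then added singly or paired, at concentrations falling by half-log increments from a clinically achievable maximum, capped at 10 microM without known Cmax.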

The mark [1] stands for this setting: curve of first compound, second compound 0.03 µM.
[2] abbreviates: curve of first compound, second compound 0.0949 µM.
Setting [3] is: curve of first compound, second compound 0.3 µM.
Setting [4] is: curve of first compound, second compound 0.949 µM.
[5] abbreviates: curve of first compound, second compound 3 µM.
Setting [6] is: second compound 0.03 µM, first compound 0.0316 µM.
Where [7] appears, read: second compound 0.03 µM, first compound 0.1 µM.
Where [8] appears, read: second compound 0.03 µM, first compound 0.316 µM.
The mark [9] stands for this setting: second compound 0.03 µM, first compound 1 µM.
[10] abbreviates: second compound 0.0949 µM, first compound 0.0316 µM.
[11] abbreviates: second compound 0.0949 µM, first compound 0.1 µM.
Setting [12] is: second compound 0.0949 µM, first compound 0.316 µM.
Setting [13] is: second compound 0.0949 µM, first compound 1 µM.
The mark [14] stands for this setting: second compound 0.3 µM, first compound 0.0316 µM.
Where [15] appears, read: second compound 0.3 µM, first compound 0.1 µM.
Setting [16] is: second compound 0.3 µM, first compound 0.316 µM.
Where [17] appears, read: second compound 0.3 µM, first compound 1 µM.
Where [18] appears, read: second compound 0.949 µM, first compound 0.0316 µM.
Setting [19] is: second compound 0.949 µM, first compound 0.1 µM.
Where [20] appears, read: second compound 0.949 µM, first compound 0.316 µM.
Setting [21] is: second compound 0.949 µM, first compound 1 µM.
Where [22] appears, read: second compound 3 µM, first compound 0.0316 µM.
The mark [23] stands for this setting: second compound 3 µM, first compound 0.1 µM.
Setting [24] is: second compound 3 µM, first compound 0.316 µM.
[25] abbreviates: second compound 3 µM, first compound 1 µM.

The IC50 is the midpoint of a concentration-inhibition curve. One may read the viability, T/C as the ratio of treated to control. `CNC(C)C(=O)NC1CN(S(=O)(=O)c2cccc(S(=O)(=O)N3CCC4CCC(C(=O)NC(c5ccccc5)c5ccccc5)N4C(=O)C(NC(=O)C(C)NC)C3)c2)CCC2CCC(C(=O)NC(c3ccccc3)c3ccccc3)N2C1=O` (centres undefined) + Cc1c(S(C)(=O)=O)c(-c2cc(F)cc(N3CCN(c4ccc(NS(=O)(=O)c5ccc(NC(CCN6CCC(C(=O)OCCCP(=O)(O)O)CC6)CSc6ccccc6)c(S(=O)(=O)C(F)(F)F)c5)cc4)CC3)c2)c(-c2ccc(Cl)cc2)n1C(C)C: the IC50 reads like this: (curve of first compound, second compound 0.1 µM) above 1000 nM; (curve of first compound, second compound 0.316 µM) above 1000 nM; (curve of first compound, second compound 1 µM) above 1000 nM; (curve of first compound, second compound 3.16 µM) above 1000 nM; (curve of first compound, second compound 10 µM) above 1000 nM. Besides, the viability, T/C reads like this: (second compound 0.1 µM, first compound 0.00316 µM) 121%; (second compound 0.1 µM, first compound 0.01 µM) 143%; (second compound 0.1 µM, first compound 0.0316 µM) 162%; (second compound 0.1 µM, first compound 0.1 µM) 165%; (second compound 0.1 µM, first compound 0.316 µM) 126%; (second compound 0.1 µM, first compound 1 µM) 108%. The viability, T/C was 139% (second compound 0.316 µM, first compound 0.00316 µM); 150% (second compound 0.316 µM, first compound 0.01 µM); 127% (second compound 0.316 µM, first compound 0.0316 µM); 149% (second compound 0.316 µM, first compound 0.1 µM); 121% (second compound 0.316 µM, first compound 0.316 µM); 135% (second compound 0.316 µM, first compound 1 µM). In addition, the viability, T/C runs as follows: (second compound 1 µM, first compound 0.00316 µM) 145%; (second compound 1 µM, first compound 0.01 µM) 150%; (second compound 1 µM, first compound 0.0316 µM) 152%; (second compound 1 µM, first compound 0.1 µM) 147%; (second compound 1 µM, first compound 0.316 µM) 194%; (second compound 1 µM, first compound 1 µM) 160%. The viability, T/C runs as follows: (second compound 3.16 µM, first compound 0.00316 µM) 132%; (second compound 3.16 µM, first compound 0.01 µM) 185%; (second compound 3.16 µM, first compound 0.0316 µM) 171%; (second compound 3.16 µM, first compound 0.1 µM) 141%; (second compound 3.16 µM, first compound 0.316 µM) 151%; (second compound 3.16 µM, first compound 1 µM) 159%. Besides, the viability, T/C reads like this: (second compound 10 µM, first compound 0.00316 µM) 143%; (second compound 10 µM, first compound 0.01 µM) 200%; (second compound 10 µM, first compound 0.0316 µM) 216%; (second compound 10 µM, first compound 0.1 µM) 159%; (second compound 10 µM, first compound 0.316 µM) 185%; (second compound 10 µM, first compound 1 µM) 179%.

Consider `O=C(c1ccc(F)c(F)c1Nc1ccc(I)cc1F)N1CC(O)([C@@H]2CCCCN2)C1` + CCN1C(C(=O)NC23CCC(C(=O)O)(CC2)CC3)C(c2cccc(Cl)c2F)C2(C(=O)Nc3cc(Cl)ccc32)C12CCCCC2, for which the concentration for half-maximal inhibition (IC50) by setting is: under setting [1], 467 nM; under setting [2], 323 nM; under setting [3], 281 nM; under setting [4], 247 nM; under setting [5], 139 nM. Further, the viability, T/C reads like this: (second compound 0.03 µM, first compound 0.00316 µM) 87.4%; (second compound 0.03 µM, first compound 0.01 µM) 65%; under setting [6], 72.2%; under setting [7], 95.9%; under setting [8], 65.9%; under setting [9], 18.9%. Besides, the viability, T/C by setting is: (second compound 0.0949 µM, first compound 0.00316 µM) 95.4%; (second compound 0.0949 µM, first compound 0.01 µM) 78%; under setting [10], 87.6%; under setting [11], 84.9%; under setting [12], 50.6%; under setting [13], 18.7%. Further, the viability, T/C is 90.9% (second compound 0.3 µM, first compound 0.00316 µM); 76% (second compound 0.3 µM, first compound 0.01 µM); 90.9% under setting [14]; 91.8% under setting [15]; 45.7% under setting [16]; 17.7% under setting [17]. In addition, the viability, T/C by setting is: (second compound 0.949 µM, first compound 0.00316 µM) 88.9%; (second compound 0.949 µM, first compound 0.01 µM) 93.6%; under setting [18], 82.2%; under setting [19], 81.5%; under setting [20], 41.4%; under setting [21], 17.3%. Also, the viability, T/C (second compound 3 µM, first compound 0.00316 µM) is 77.4%; the viability, T/C (second compound 3 µM, first compound 0.01 µM) was 82.9%; the viability, T/C under setting [22] is 68.3%; the viability, T/C under setting [23] was 58.6%; the viability, T/C under setting [24] is 32.1%; the viability, T/C under setting [25] was 10.7%.

For the molecule `C#Cc1c(F)ccc2cc(O)cc(-c3ncc4c(N5CC6CCC(C5)N6)nc(OCC56CCCN5CC(F)C6)nc4c3F)c12` (centres undefined) + CCN1C(C(=O)NC23CCC(C(=O)O)(CC2)CC3)C(c2cccc(Cl)c2F)C2(C(=O)Nc3cc(Cl)ccc32)C12CCCCC2, the 50% inhibitory concentration (IC50) runs as follows: under setting [1], above 10000 nM; under setting [2], above 10000 nM; under setting [3], above 10000 nM; under setting [4], above 10000 nM; under setting [5], above 10000 nM. In addition, the viability, T/C runs as follows: under setting [6], 71.3%; under setting [7], 72.9%; under setting [8], 79.2%; under setting [9], 75.8%; (second compound 0.03 µM, first compound 3.16 µM) 78.4%; (second compound 0.03 µM, first compound 10 µM) 68.4%. Moreover, the viability, T/C reads like this: under setting [10], 70.3%; under setting [11], 83.3%; under setting [12], 75.7%; under setting [13], 76.7%; (second compound 0.0949 µM, first compound 3.16 µM) 71.2%; (second compound 0.0949 µM, first compound 10 µM) 77%. The viability, T/C was 84.6% under setting [14]; 73.6% under setting [15]; 89.1% under setting [16]; 72.6% under setting [17]; 60.8% (second compound 0.3 µM, first compound 3.16 µM); 51% (second compound 0.3 µM, first compound 10 µM). Besides, the viability, T/C by setting is: under setting [18], 66.8%; under setting [19], 72%; under setting [20], 73%; under setting [21], 60.9%; (second compound 0.949 µM, first compound 3.16 µM) 61.1%; (second compound 0.949 µM, first compound 10 µM) 52.5%. Also, the viability, T/C runs as follows: under setting [22], 66.5%; under setting [23], 62.2%; under setting [24], 57.8%; under setting [25], 59.8%; (second compound 3 µM, first compound 3.16 µM) 60.1%; (second compound 3 µM, first compound 10 µM) 68.8%.

Regarding `Cc1nc(N2CCC3(CC2)COC(C)C3N)c(CO)nc1Sc1ccnc(N)c1Cl` (centres undefined), the viability, T/C was 64.8% and 95.2% and 81.6% (compound 0.00949 µM); 69.3% and 115% and 93.2% (compound 0.03 µM); 81% and 125% and 89.5% (compound 0.0949 µM); 48.4% and 109% and 92% (compound 0.3 µM); 55.7% and 115% and 93.5% (compound 0.949 µM); 18.5% and 86.6% and 80.5% (compound 3 µM). Further, where the note is “curve of compound”, the IC50 is 964 nM and > 3000 nM.

For `C=CC(=O)N1CCN(c2nc(=O)n(-c3c(C)ccnc3C(C)C)c3nc(-c4c(O)cccc4F)c(F)cc23)C(C)C1` (centres undefined), the viability, T/C runs as follows: (compound 0.0316 µM) 99.3% and 91.7% and 80.4%; (compound 0.1 µM) 81% and 76.5% and 90.9%; (compound 0.316 µM) 99% and 90.2% and 92.3%; (compound 1 µM) 87.4% and 78.7% and 108%; (compound 3.16 µM) 104% and 121% (2×); (compound 10 µM) 101% and 143% and 119%. For the same molecule, the 50% inhibitory concentration (IC50) (curve of compound) is above 10000 nM.
